{"source": "PubChem BioAssay (NCI)", "assay_in_all_cases": "NCI-60 cell line screen, 48 h", "key": {"[1]": {"tested_on": "K-562 leukemia"}, "[2]": {"tested_on": "ACHN renal"}, "[3]": {"tested_on": "SK-MEL-28 melanoma"}, "[4]": {"tested_on": "A549 NSCLC"}, "[5]": {"tested_on": "SW-620 colon"}, "[6]": {"tested_on": "OVCAR-5 ovarian"}, "[7]": {"tested_on": "RPMI-8226 leukemia"}, "[8]": {"tested_on": "LOX IMVI melanoma"}, "[9]": {"tested_on": "NCI-H522 lung"}, "[10]": {"tested_on": "HL-60(TB) leukemia"}}, "note": "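Where inhibition never reached the appropriate level, the endpoint shown equals the highest concentration tested. Otherwise, values were interpolated linearly from a five-concentration, 48-hour dose response in 96-well plates. TGI: concentration producing complete growth inhibition.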"}
{"smiles": "c1cc(CN2CCNCCNCCNCC2)cc(CN2CCNCCNCCNCC2)c1", "values": [{"measurement": "TGI", "setting": "[1]", "value": "> 100", "unit": "µM"}, {"measurement": "TGI", "setting": "[2]", "value": "> 100", "unit": "µM"}, {"measurement": "TGI", "setting": "[3]", "value": "> 100", "unit": "µM"}, {"measurement": "TGI", "setting": "[4]", "value": "> 100", "unit": "µM"}, {"measurement": "TGI", "setting": "[5]", "value": "> 100", "unit": "µM"}, {"measurement": "TGI", "setting": "[6]", "value": "> 100", "unit": "µM"}, {"measurement": "TGI", "setting": "[7]", "value": "> 100", "unit": "µM"}, {"measurement": "TGI", "setting": "[8]", "value": "> 100", "unit": "µM"}]}
{"smiles": "O=C1/C(=C/c2cccs2)NC(=S)N1CN1CCCCC1", "values": [{"measurement": "TGI", "setting": "[1]", "value": "> 100", "unit": "µM"}, {"measurement": "TGI", "setting": "[9]", "value": "> 100", "unit": "µM"}, {"measurement": "TGI", "setting": "[2]", "value": "> 100", "unit": "µM"}, {"measurement": "TGI", "setting": "[3]", "value": "> 100", "unit": "µM"}, {"measurement": "TGI", "setting": "[4]", "value": "> 100", "unit": "µM"}, {"measurement": "TGI", "setting": "[5]", "value": "> 100", "unit": "µM"}, {"measurement": "TGI", "setting": "[6]", "value": "> 100", "unit": "µM"}, {"measurement": "TGI", "setting": "[7]", "value": "> 100", "unit": "µM"}, {"measurement": "TGI", "setting": "[8]", "value": "> 100", "unit": "µM"}]}
{"smiles": "N#Cc1c(-c2ccccc2)cc(-c2ccccc2)n(C2OCC(O)C(O)C2O)c1=S", "note": "(centres undefined)", "values": [{"measurement": "TGI", "setting": "[1]", "value": "> 100", "unit": "µM"}, {"measurement": "TGI", "setting": "[9]", "value": 37.9, "unit": "µM"}, {"measurement": "TGI", "setting": "[2]", "value": 38.1, "unit": "µM"}, {"measurement": "TGI", "setting": "[3]", "value": 77.1, "unit": "µM"}, {"measurement": "TGI", "setting": "[4]", "value": 57.4, "unit": "µM"}, {"measurement": "TGI", "setting": "[5]", "value": 33.5, "unit": "µM"}, {"measurement": "TGI", "setting": "[6]", "value": 58.5, "unit": "µM"}, {"measurement": "TGI", "setting": "[7]", "value": 34.7, "unit": "µM"}, {"measurement": "TGI", "setting": "[8]", "value": 31.9, "unit": "µM"}]}
{"smiles": "CSc1ccc2c(cc1=O)C(NC(=O)c1ccc(C#N)cc1)CCc1cc(O)c(O)c(O)c1-2", "note": "(centres undefined)", "values": [{"measurement": "TGI", "setting": "[1]", "value": 25.1, "unit": "µM"}, {"measurement": "TGI", "setting": "[9]", "value": 40.3, "unit": "µM"}, {"measurement": "TGI", "setting": "[2]", "value": "> 100", "unit": "µM"}, {"measurement": "TGI", "setting": "[3]", "value": "> 100", "unit": "µM"}, {"measurement": "TGI", "setting": "[4]", "value": "> 100", "unit": "µM"}, {"measurement": "TGI", "setting": "[10]", "value": 51.9, "unit": "µM"}, {"measurement": "TGI", "setting": "[5]", "value": 37.7, "unit": "µM"}, {"measurement": "TGI", "setting": "[6]", "value": "> 100", "unit": "µM"}]}
{"smiles": "CC(C)CCC[C@@H](C)[C@H]1CC[C@H]2C3=C[C@H](OS(=O)(=O)O)[C@@]4(O)C[C@@H](O)CC[C@]4(C)[C@@]3(O)CC[C@]12C", "values": [{"measurement": "TGI", "setting": "[1]", "value": "> 100", "unit": "µM"}, {"measurement": "TGI", "setting": "[9]", "value": "> 100", "unit": "µM"}, {"measurement": "TGI", "setting": "[2]", "value": "> 100", "unit": "µM"}, {"measurement": "TGI", "setting": "[3]", "value": "> 100", "unit": "µM"}, {"measurement": "TGI", "setting": "[4]", "value": "> 100", "unit": "µM"}, {"measurement": "TGI", "setting": "[5]", "value": "> 100", "unit": "µM"}, {"measurement": "TGI", "setting": "[6]", "value": "> 100", "unit": "µM"}, {"measurement": "TGI", "setting": "[7]", "value": "> 100", "unit": "µM"}, {"measurement": "TGI", "setting": "[8]", "value": "> 100", "unit": "µM"}]}
{"smiles": "C[C@H](NC(=O)CNC(=O)CCCCCC(=O)NCC(=O)N[C@@H](C)C(=O)OCc1ccccc1)C(=O)OCc1ccccc1", "values": [{"measurement": "TGI", "setting": "[1]", "value": "> 100", "unit": "µM"}, {"measurement": "TGI", "setting": "[2]", "value": "> 100", "unit": "µM"}, {"measurement": "TGI", "setting": "[3]", "value": "> 100", "unit": "µM"}, {"measurement": "TGI", "setting": "[4]", "value": "> 100", "unit": "µM"}, {"measurement": "TGI", "setting": "[5]", "value": "> 100", "unit": "µM"}, {"measurement": "TGI", "setting": "[6]", "value": "> 100", "unit": "µM"}, {"measurement": "TGI", "setting": "[7]", "value": "> 100", "unit": "µM"}, {"measurement": "TGI", "setting": "[8]", "value": "> 100", "unit": "µM"}]}
{"smiles": "Nc1[nH]c(=O)[nH]c(=O)c1Cc1cccc(Cl)c1", "values": [{"measurement": "TGI", "setting": "[1]", "value": "> 100", "unit": "µM"}, {"measurement": "TGI", "setting": "[9]", "value": "> 100", "unit": "µM"}, {"measurement": "TGI", "setting": "[2]", "value": "> 100", "unit": "µM"}, {"measurement": "TGI", "setting": "[3]", "value": "> 100", "unit": "µM"}, {"measurement": "TGI", "setting": "[4]", "value": "> 100", "unit": "µM"}, {"measurement": "TGI", "setting": "[5]", "value": "> 100", "unit": "µM"}, {"measurement": "TGI", "setting": "[6]", "value": "> 100", "unit": "µM"}, {"measurement": "TGI", "setting": "[7]", "value": "> 100", "unit": "µM"}, {"measurement": "TGI", "setting": "[8]", "value": "> 100", "unit": "µM"}]}
{"smiles": "CC(=O)N(CC(=O)C(=O)NNc1ccoc1)c1ccc(Cl)cc1", "values": [{"measurement": "TGI", "setting": "[1]", "value": "> 100", "unit": "µM"}, {"measurement": "TGI", "setting": "[9]", "value": "> 100", "unit": "µM"}, {"measurement": "TGI", "setting": "[2]", "value": "> 100", "unit": "µM"}, {"measurement": "TGI", "setting": "[3]", "value": "> 100", "unit": "µM"}, {"measurement": "TGI", "setting": "[4]", "value": "> 100", "unit": "µM"}, {"measurement": "TGI", "setting": "[5]", "value": "> 100", "unit": "µM"}, {"measurement": "TGI", "setting": "[6]", "value": "> 100", "unit": "µM"}, {"measurement": "TGI", "setting": "[7]", "value": "> 100", "unit": "µM"}, {"measurement": "TGI", "setting": "[8]", "value": "> 100", "unit": "µM"}]}
{"smiles": "C=C(CCC=C(C)C)C1CC=C(C)CC1", "note": "(centres undefined)", "values": [{"measurement": "TGI", "setting": "[9]", "value": 32.3, "unit": "µM"}, {"measurement": "TGI", "setting": "[2]", "value": 33.4, "unit": "µM"}, {"measurement": "TGI", "setting": "[4]", "value": 39, "unit": "µM"}, {"measurement": "TGI", "setting": "[5]", "value": 53.6, "unit": "µM"}, {"measurement": "TGI", "setting": "[6]", "value": "> 100", "unit": "µM"}, {"measurement": "TGI", "setting": "[8]", "value": 21.9, "unit": "µM"}]}
{"smiles": "COc1ccc(NC/C=C/C(=C/COC(C)=O)OC(C)=O)cc1", "values": [{"measurement": "TGI", "setting": "[1]", "value": 3.62, "unit": "µM"}, {"measurement": "TGI", "setting": "[9]", "value": 4.78, "unit": "µM"}, {"measurement": "TGI", "setting": "[2]", "value": 3.29, "unit": "µM"}, {"measurement": "TGI", "setting": "[3]", "value": 3.89, "unit": "µM"}, {"measurement": "TGI", "setting": "[4]", "value": 33, "unit": "µM"}, {"measurement": "TGI", "setting": "[5]", "value": 3.49, "unit": "µM"}, {"measurement": "TGI", "setting": "[6]", "value": 3.38, "unit": "µM"}, {"measurement": "TGI", "setting": "[7]", "value": 0.829, "unit": "µM"}, {"measurement": "TGI", "setting": "[8]", "value": 4.79, "unit": "µM"}]}
